In patent publication US20050228016A1, “TETRAHYDROQUINOLINES FOR MODULATING THE EXPRESSION OF EXOGENOUS GENES VIA AN ECDYSONE RECEPTOR COMPLEX” (priority 2002, published 2005):

Tests used:
CfEcR + LmUSP = CfEcR + LmUSP in 3T3 cells, reporter assayed 48 h after ligand
Experimental: 1.9—Gal4CfEcR-DEF/VP16LmRXR-EF: This construct was prepared in the same way as switch 1.1 except LmRXR-EF (SEQ ID NO: 18) was used in place of HsRXRβ-LmRXREF chimera.
(§1) To determine if any of the compounds shown in Table 1 and Table 2 can act as inducers of reporter gene activity in a transactivation assay, these compounds were tested in NIH3T3 cells transfected with pFRLUC reporter and gene expression cassettes, 1.1 to 1.8 described in Example 1. […] At 48 hr after adding ligand, the cells were harvested and reporter activity was assayed using Dual Luciferase assay kit (Promega carporation). Total relative light units (RLU) are shown. Standard methods for culture and maintenance of the cells were followed.
(§2) Transfections: DNAs corresponding to the various switch constructs outlined in Example I, specifically switches 1.1 through 1.8, were transfected into mouse NIH3T3 cells (ATCC) as follows. Cells were harvested when they reached 50% confluency and plated in 6-, 12- or 24-well plates at 125,000, 50,000, or 25,000 cells, respectively, in 2.5, 1.0, or 0.5 ml of growth medium containing 10% fetal bovine serum (FBS), respectively. The next day, the cells were rinsed with growth medium and transfected for four hours. […] For 12-well plates, 4 μl of Superfect™ was mixed with 100 μl of growth medium. 1.0 μg of reporter construct and 0.25 μg of each receptor construct of the receptor pair to be analyzed were added to the transfection mix. A second reporter construct was added [pTKRL (Promega), 0.1 μg/transfection mix] that comprises a Renilla luciferase gene operably linked and placed under the control of a thymidine kinase (TK) constitutive promoter and was used for normalization. The contents of the transfection mix were mixed in a vortex mixer and let stand at room temperature for 30 min. At the end of incubation, the transfection mix was added to the cells maintained in 400 μl growth medium. The cells were maintained at 37° C. and 5% CO2 for four hours. At the end of incubation, 500 μl of growth medium containing 20% FBS and either dimethylsulfoxide (DMSO; control) or a DMSO solution of 0.1, 1, and 10 μM ligand was added and the cells were maintained at 37° C. and 5% CO2 for 48 hours. The cells were harvested and reporter activity was assayed. The same procedure was followed for 6 and 24 well plates as well except all the reagents were doubled for 6 well plates and reduced to half for 24-well plates.
(§3) Ligands: All ligands were dissolved in DMSO and the final concentration of DMSO was maintained at 0.1% in both controls and treatments.
(§4) Reporter Assays: Cells were harvested 48 hours after adding ligands. 125, 250, or 500 μl of passive lysis buffer (part of Dual-luciferase™ reporter assay system from Promega Corporation) were added to each well of 24- or 12- or 6-well plates respectively. The plates were placed on a rotary shaker for 15 minutes. Twenty μl of lysate were assayed. Luciferase activity was measured using Dual-luciferase™ reporter assay system from Promega Corporation following the manufacturer's instructions.

[1] = target: T1, Bombyx mori EcR (VP16-BmEcR, CVBE) (Bombyx mori, UniProt P49881); assay: Z3 assay (HEK-293 clone Z3 with CVBE and 6x EcRE LacZ, β-galactosidase reporter); type: cell-based; conditions: average of two wells; for fold induction at 33 µM: HEK293, 48 h, read-out: Fold Induction Average, Z3V1 Assay 33 μM; for Fold Induction Average, Z3V1 Assay 33 μM: 48 h
T1 construct: expressed in transfected cells
T1 sequence (P49881 86-606): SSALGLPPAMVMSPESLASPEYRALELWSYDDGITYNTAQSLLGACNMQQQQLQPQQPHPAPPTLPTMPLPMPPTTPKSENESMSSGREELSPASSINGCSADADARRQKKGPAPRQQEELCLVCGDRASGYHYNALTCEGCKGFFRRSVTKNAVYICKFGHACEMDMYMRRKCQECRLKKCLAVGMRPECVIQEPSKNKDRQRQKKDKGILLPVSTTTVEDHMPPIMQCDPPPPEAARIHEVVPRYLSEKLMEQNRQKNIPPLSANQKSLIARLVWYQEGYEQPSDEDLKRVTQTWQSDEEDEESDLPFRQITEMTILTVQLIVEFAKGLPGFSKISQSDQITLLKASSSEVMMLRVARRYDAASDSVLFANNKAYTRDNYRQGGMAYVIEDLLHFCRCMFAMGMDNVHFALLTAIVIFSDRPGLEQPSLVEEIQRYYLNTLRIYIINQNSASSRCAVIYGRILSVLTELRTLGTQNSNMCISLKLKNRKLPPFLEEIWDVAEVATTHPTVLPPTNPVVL

DmEcR + LmUSP = target: T2, DmEcR + LmUSP (Drosophila melanogaster, UniProt P34021); assay: cell-based; conditions: for fold induction at 10 µM: NIH3T3, read-out: Fold Induction (10 μM); for fold induction at 100 µM: NIH3T3, read-out: Fold Induction (100 μM)
T2 sequence (P34021 342-878): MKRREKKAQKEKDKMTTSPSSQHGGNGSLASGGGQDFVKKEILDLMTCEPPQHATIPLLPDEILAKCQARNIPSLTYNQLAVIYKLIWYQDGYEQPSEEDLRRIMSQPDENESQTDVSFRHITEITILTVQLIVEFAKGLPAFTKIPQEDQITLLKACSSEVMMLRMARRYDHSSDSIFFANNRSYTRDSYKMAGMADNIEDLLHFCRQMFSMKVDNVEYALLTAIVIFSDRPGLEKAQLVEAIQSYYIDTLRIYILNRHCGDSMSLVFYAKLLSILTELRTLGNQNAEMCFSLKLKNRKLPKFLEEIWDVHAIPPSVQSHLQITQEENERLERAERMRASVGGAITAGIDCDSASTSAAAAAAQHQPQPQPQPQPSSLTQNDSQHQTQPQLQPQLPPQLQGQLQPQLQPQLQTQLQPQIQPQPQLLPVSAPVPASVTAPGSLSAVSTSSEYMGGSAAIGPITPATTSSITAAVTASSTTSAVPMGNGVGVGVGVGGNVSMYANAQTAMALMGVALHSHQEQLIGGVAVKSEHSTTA
Experimental: as §1, §2, §3, §4

Gal4DBD/AaEcR (DEF) = target: T3, Gal4DBD/AaEcR (DEF) (Aedes aegypti, UniProt P49880); assay: cell-based; type: cell-based; conditions: for fold induction at 33 µM: NIH3T3, read-out: Fold Induction Average, AA_3T3V1 Assay 33 μM; for Fold Induction Average, AA_3T3V1 Assay 33 μM: 3T3 cells, 48 h, average of two wells
T3 construct: The wildtype D, E, and F domains from mosquito Aedes aegypti EcR; expressed in transfected cells; host or cells: 3T3 cells
How it was run: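 Single-dose ligand testing at 33 μM, applied in serum medium after 4 h transfection. Host was 3T3 cells carrying Gal4DBD/AaEcR (DEF) plus a 5× GAL4 RE-driven firefly luciferase reporter (pFRLuc).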

[2] = target: T4, GAL4AaEcR-DEF/VP16HsRXRβ-EF (Aedes aegypti, UniProt P49880); assay: Transactivation reporter assay, AaEcR based switch (1.4) in NIH3T3 cells; type: cell-based; conditions: mammalian cells; FIGS. 2-5
T4 construct: expressed in transfected cells; host or cells: mouse NIH3T3 cells
T4 sequence (P49880 405-776 limits assumed): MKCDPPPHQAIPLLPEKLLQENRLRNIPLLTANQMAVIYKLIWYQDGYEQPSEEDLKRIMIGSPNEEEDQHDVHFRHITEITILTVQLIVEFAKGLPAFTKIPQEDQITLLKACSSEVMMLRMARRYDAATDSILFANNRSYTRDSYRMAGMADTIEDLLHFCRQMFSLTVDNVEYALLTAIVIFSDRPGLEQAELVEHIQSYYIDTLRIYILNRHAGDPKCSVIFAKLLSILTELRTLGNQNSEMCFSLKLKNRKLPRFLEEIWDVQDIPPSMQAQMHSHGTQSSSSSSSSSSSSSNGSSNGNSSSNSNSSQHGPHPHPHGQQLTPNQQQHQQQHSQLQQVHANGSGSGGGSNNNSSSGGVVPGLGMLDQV
T4 sequence (P28702 299-533 partner limits assumed): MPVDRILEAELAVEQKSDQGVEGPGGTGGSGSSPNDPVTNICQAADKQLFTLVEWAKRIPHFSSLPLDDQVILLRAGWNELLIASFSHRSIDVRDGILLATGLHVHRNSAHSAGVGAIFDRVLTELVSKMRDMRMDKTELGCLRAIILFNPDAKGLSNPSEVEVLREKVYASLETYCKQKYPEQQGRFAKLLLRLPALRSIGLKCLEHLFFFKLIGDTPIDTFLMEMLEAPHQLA
Experimental: Total relative light units (RLU) are shown.
Twenty μl of lysate were assayed.

[3] = test system: GAL4 DBD-CfEcR(DEF)/VP16AD-MmRXRE; conditions: CHO 13B3 clone, 48 h, average of two wells
Source text: GAL4 DBD-CfEcR(DEF)/VP16AD-MmRXRE: The wild-type D, E, and F domains from spruce budworm Choristoneura fumiferana EcR (“CfEcR-DEF”; SEQ ID NO: 1) were fused to a GAL4 DNA binding domain (“Gal4DBD1-147”; nucleotides 31 to 471 of SEQ ID NO: 2) and placed under the control of the SV40e promoter of pM vector (PT3119-5, Clontech, Palo Alto, Calif.). The D and E domains from Mus Musculus RXR (“MmRXR-DE”; SEQ ID NO: 22) were fused to the transactivation domain from VP16 (“VP16AD”; SEQ ID NO: 5) and placed under the control of the SV40e promoter of the pVP16 vector (PT3127-5, Clontech, Palo Alto, Calif.).
CHO cells were transiently transfected with transcription cassettes for GAL4 DBD-CfEcR(DEF) and for VP16AD-MmRXRE controlled by SV40e promoters. Stably transfected cells were selected using Hygromycin. Individually isolated CHO cell clones were transiently transfected with a GAL4 RE-luciferase reporter (pFR-Luc, Stratagene, La Jolla, Calif.). The 13B3 clone was selected using Zeocin.
Cells were trypsinized and diluted to a concentration of 2.5×10^4 cells mL. 100 μL of cell suspension was placed in each well of a 96 well plate and incubated at 37° C. under 5% CO2 for 24 h. Ligand stock solutions were prepared in DMSO and diluted 300 fold for all treatments.
Luciferase reporter gene expression was measured 48 h after cell treatment using Bright-Glo™ Luciferase Assay System from Promega (E2650). Luminescence was detected at room temperature using a Dynex MLX microtiter plate luminometer.
Each assay was conducted in two separate wells, and the two values were averaged. Fold inductions were calculated by dividing relative light units (“RLU”) in ligand treated cells with RLU in DMSO treated cells.

C[C@H]1C[C@H](Nc2ccc(F)cc2)c2cc(F)ccc2N1C(=O)c1ccc(F)c(Cl)c1 (relative stereo) [Compound I-6, trans-1-(3-chloro-4-fluorobenzoyl)-6-fluoro-2-methyl-4-(4-fluoroanilino)-1,2,3,4-tetrahydroquinoline]
Fold Induction (10 μM) (CfEcR + LmUSP): 2 fold | fold induction at 33 µM [1]: 1 | fold induction at 10 µM (DmEcR + LmUSP): 2 | fold induction at 100 µM (DmEcR + LmUSP): 4 | fold induction at 33 µM (Gal4DBD/AaEcR (DEF)): 86

C[C@@H]1C[C@H](Nc2ccc(F)cc2)c2cc(F)ccc2N1C(=O)c1ccc(F)c(Cl)c1 (relative stereo) [Compound I-7, cis-1-(3-chloro-4-fluorobenzoyl)-6-fluoro-2-methyl-4-(4-fluoroanilino)-1,2,3,4-tetrahydroquinoline]
Fold Induction (10 μM) (CfEcR + LmUSP): 94 fold | fold induction at 33 µM [1]: 32 | fold induction at 10 µM (DmEcR + LmUSP): 14 | fold induction at 100 µM (DmEcR + LmUSP): 8 | fold induction at 33 µM (Gal4DBD/AaEcR (DEF)): 357

Cc1cc(C(=O)N2c3ccc(F)cc3[C@@H](Nc3ccc(F)cc3)C[C@@H]2C)ccc1F (relative stereo) [Compound I-13]
Activity on AaEcR based switches [2]: very active | Fold Induction Average, 13B3V1 Assay 33 μM [3]: 4 fold | Fold Induction Average, Z3V1 Assay 33 μM [1]: 105 fold | Fold Induction Average, AA_3T3V1 Assay 33 μM (Gal4DBD/AaEcR (DEF)): 189 fold

Cc1ccc(C(=O)N2c3ccc(F)cc3[C@H](Nc3ccc(F)cc3)C[C@@H]2C)cc1F (relative stereo) [Compound I-14]
Activity on AaEcR based switches [2]: very active | Fold Induction Average, 13B3V1 Assay 33 μM [3]: 2 fold | Fold Induction Average, Z3V1 Assay 33 μM [1]: 7 fold | Fold Induction Average, AA_3T3V1 Assay 33 μM (Gal4DBD/AaEcR (DEF)): 518 fold
